{"source": "patent US5837729A", "about": "“Methods for treating and preventing HIV infection using acetaminophen and derivatives thereof” (priority 1996, dated 1998)", "key": {"HIV [1]": {"tested_on": "HIV", "conditions": "cited from earlier work"}, "HIV [2]": {"tested_on": "HIV", "assay": "HIV infection of MT-4 T lymphocytes, p24 ELISA of culture supernatant on day 2", "type": "cell-based", "conditions": "for IC100 / IC50: Human immunodeficiency virus 1, T-lymphocyte; for IC100: 48 h; for anti-HIV activity (in words) / IC50: MT-4, p24", "experimental": "(§1) The % values on the right axis were positioned in a fashion that allows estimation of inhibitory effect of the test drug as a function of AGB concentration plotted on the horizontal axis.\n(§2) The % values on the right axis were positioned in a fashion that allows estimation of the inhibitory effect of test drug as a function of EGB concentration plotted on the horizontal axis.\nIndicator MT-4 T lymphocytes (10^5 cells/ml) were plated in triplicates in 96-well culture plates in the presence of serial 10-fold molar dilutions of test compound. Each culture well contained 180 μl of RPMI 1640 culture medium with 10% FBS, L-glutamine, penicillin and streptomycin. Immediately thereafter MT-4 lymphocytes were exposed to 20 μl of viral inoculum corresponding to 100 infectious units per lymphocyte as determined by limiting dilution assay. Two days later--the minimal time period corresponding to full replication cycle of HIV--the culture supernatants were collected and dose-response to drugs was quantitated by measuring the levels of cell-free p24 antigen. The amount of released virus was calculated by comparing the optical density of experimental values from treated wells to commercial p24 standards (Coulter, Hialeah, Fla.).\n(§3) The serial ten-fold dilutions of AGB, virus, and cells were left without washing in the culture until tested for HIV production 2 days later. Topical contraceptive agents nonoxynol-9 and gramicidin were used as controls.\n(§4) The serial ten-fold dilutions of EGB, virus, and cells were left without washing in the culture until tested for HIV production 2 days later. Topical contraceptive agents nonoxynol-9 and gramicidin were used as controls."}, "MT-4 T lymphocytes [3]": {"tested_on": "MT-4 T lymphocytes", "assay": "in vitro", "from_the_text": "(§5) The % values on the right axis were positioned in a fashion that allows estimation of inhibitory effect of the test drug as a function of acetaminophen concentration plotted on the horizontal axis.\nas §1, §2\n(§6) The toxicity of compounds was tested as follows. MT-4 lymphocytes were grown in the presence or absence of log10 dilutions of test compounds for two days. The cells were then exposed for 4 hours to the preparation of XTT tetrasolium salt (Sigma, St Louis, Mo.) containing phenazine methosulfate (Aldrich, Milwaukee, Wis.). The viability of drug-exposed cells was determined based on activity of mitochondrial […] of MT-4 converting XTT into color-dense formazan. Optical density was then determined in a plate reader at […] with reference filter at […] and compared to absorbance values of the control cells cultured without drugs. XTT test was also confirmed by trypan blue exclusion test based on the principle that nuclei of dead cells are stained blue.\nas §3, §4"}, "MT-4 T lymphocytes [4]": {"tested_on": "MT-4 T lymphocytes", "type": "cell-based", "experimental": "The toxicity of compounds was tested as follows."}, "[5]": {"conditions": "cited from earlier work; for potency as experimental vaginal contraceptive, fold more potent than nonoxynol-9: versus nonoxynol-9"}, "acrosin": {"tested_on": "acrosin", "conditions": "correlated with contraceptive effect; cited from earlier work"}, "[6]": {"conditions": "cited from earlier work"}, "human spermatozoa": {"tested_on": "human spermatozoa", "conditions": "in vitro with human spermatozoa and in animal studies; cited from earlier work"}, "in vitro": {"assay": "in vitro", "conditions": "human, mt-4 cells", "from_the_text": "as §5, §1, §2, §6, §3, §4"}, "[7]": {"conditions": "background, earlier work of inventor"}, "[8]": {"conditions": "Table 1, MT-4, 2 days, read-out: IC100 (approximate order of anti-HIV concentration)"}, "[9]": {"conditions": "p24 ELISA, MT-4 supernatant, day 2, read-out: Complete inhibition of HIV replication, concentration"}}, "note": "“And” between values parts separate entries of the source, which are not always exact repeats. Equal values may be shown once. “Also recorded” adds a separate entry of the source. Read-outs that look alike come from different tables or passages of the source.", "data": [{"compound": "CC(C)C[C@H](NC(=O)[C@@H](O)[C@H](N)Cc1ccccc1)C(=O)O", "note": "[bestatin]", "values": [{"measurement": "anti-HIV effect / inhibition of HIV replication (in words)", "setting": "HIV [1]; [7]", "result": "anti-HIV effect"}]}, {"compound": "c1ccc([C@H]2CN3CCSC3=N2)cc1", "note": "[levamisole]", "values": [{"measurement": "anti-HIV effect / inhibition of HIV replication (in words)", "setting": "HIV [1]", "result": "anti-HIV effect"}]}, {"compound": "CN/C(=N/CCSCc1nc[nH]c1C)NC#N", "note": "[cimetidine]", "values": [{"measurement": "anti-HIV effect / inhibition of HIV replication (in words)", "setting": "HIV [1]", "result": "able to inhibit HIV replication without producing significant cytotoxicity"}]}, {"compound": "CC(=O)[C@H]1CC[C@H]2[C@@H]3CCC4=CC(=O)CC[C@]4(C)[C@H]3CC[C@]12C", "note": "[progesterone]", "values": [{"measurement": "anti-HIV effect / inhibition of HIV replication (in words)", "setting": "HIV [1]; [7]", "result": "anti-HIV effect"}]}, {"compound": "CC(=O)CC(c1ccccc1)c1c(O)c2ccccc2oc1=O", "note": "(stereo not drawn) [warfarin]", "values": [{"measurement": "anti-HIV effect / inhibition of HIV replication (in words)", "setting": "HIV [1]; [7]", "result": "anti-HIV effect"}]}, {"compound": "CCOC(=O)c1ccc(OC(=O)c2ccc(NC(=N)N)cc2)cc1", "note": "[EGB, 4'-carboethoxyphenyl 4-guanidinobenzoate]", "values": [{"measurement": "SI, selectivity index, ratio between CC100 and IC100 values", "setting": "HIV [2]", "result": 1}, {"measurement": "IC100", "setting": "HIV [2]; [8]", "result": 100, "unit": "µg/mL"}, {"measurement": "anti-HIV activity (in words)", "setting": "HIV [2]", "result": "antiviral activity was not specific and due to the death of host lymphocytes; also recorded: no effect on HIV infection at doses that were not toxic; also recorded: has not shown specific anti-HIV activity"}, {"measurement": "CC100 (cytotoxicity)", "setting": "MT-4 T lymphocytes [3]; human, 2880 min", "result": 100, "unit": "µg"}, {"measurement": "viability of MT-4 lymphocytes by trypan blue exclusion (in words)", "setting": "MT-4 T lymphocytes [4]", "result": "death of MT-4 lymphocytes"}, {"measurement": "toxicity and irritation versus nonoxynol-9 (in words)", "setting": "[5]", "result": "far less toxic and irritating"}, {"measurement": "potency as experimental vaginal contraceptive, fold more potent than nonoxynol-9", "setting": "[5]", "result": "up to 100 fold"}, {"measurement": "acrosin activity (in words)", "setting": "acrosin", "result": "inhibitory action on acrosin activity"}]}, {"compound": "nonoxynol-9", "values": [{"measurement": "IC100 (approximate order of anti-HIV concentration)", "setting": "HIV [2]; Table 1, MT-4, 2 days", "result": 10, "unit": "µg"}, {"measurement": "CC100 (cytotoxicity)", "setting": "MT-4 T lymphocytes [3]; Table 1, MT-4, 2 days", "result": 10, "unit": "µg"}, {"measurement": "local toxicity (in words)", "setting": "[6]; spermicidal agent, effective concentration", "result": "local toxicity of this agent is incompatible with its antiviral activity when used at an effective concentration"}]}, {"compound": "estrogen", "values": [{"measurement": "anti-HIV effect / inhibition of HIV replication (in words)", "setting": "HIV [1]; [7]", "result": "anti-HIV effect"}]}, {"compound": "gramicidin", "values": [{"measurement": "IC100 (approximate order of anti-HIV concentration)", "setting": "HIV [2]; Table 1, MT-4, 2 days", "result": 0.01, "unit": "µg"}, {"measurement": "CC100 (cytotoxicity)", "setting": "MT-4 T lymphocytes [3]; Table 1, MT-4, 2 days", "result": 10, "unit": "µg"}, {"measurement": "toxicity relative to AGB (in words)", "setting": "MT-4 T lymphocytes [3]; dose compared with AGB", "result": "toxic at doses that are a thousand-fold lower than AGB"}, {"measurement": "anti-HIV effect / inhibition of HIV replication (in words)", "setting": "HIV [1]; [7]", "result": "able to inhibit HIV replication without producing significant cytotoxicity"}]}, {"compound": "COc1ccc2c(c1)c(CC(=O)O)c(C)n2C(=O)c1ccc(Cl)cc1", "note": "[indomethacin]", "values": [{"measurement": "relative anti-HIV potency (in words)", "setting": "HIV [1]; indomethacin versus aspirin", "result": "more potent than aspirin"}]}, {"compound": "C[C@@H]1C[C@H]2[C@@H]3CCC4=CC(=O)C=C[C@]4(C)[C@@]3(F)[C@@H](O)C[C@]2(C)[C@@]1(O)C(=O)CO", "note": "[dexamethasone]", "values": [{"measurement": "anti-HIV effect / inhibition of HIV replication (in words)", "setting": "HIV [1]; [7]", "result": "anti-HIV effect"}]}, {"compound": "CC(=O)Nc1ccc(OC(=O)c2ccc(NC(=N)N)cc2)cc1", "note": "[AGB, 4'-acetamidophenyl 4-guanidinobenzoate]", "values": [{"measurement": "antiviral potency relative to nonoxynol-9, times less potent", "setting": "HIV [2]", "result": 10, "unit": "times"}, {"measurement": "IC100", "setting": "HIV [2]; [8]", "result": 100, "unit": "µg/mL"}, {"measurement": "IC100", "setting": "HIV [2]; [9]", "result": 100, "unit": "µg/mL"}, {"measurement": "IC50", "setting": "HIV [2]; read-out: anti-HIV activity in vitro, IC50", "result": 14, "unit": "µg/mL"}, {"measurement": "SI, selectivity index, ratio between CC100 and IC100 values", "setting": "HIV [2]; Table 1, CC100/IC100", "result": 100}, {"measurement": "CC100 (cytotoxicity)", "setting": "MT-4 T lymphocytes [3]; human, 2880 min", "result": 10000, "unit": "µg"}, {"measurement": "toxicity and irritation versus nonoxynol-9 (in words)", "setting": "[5]", "result": "far less toxic and irritating"}, {"measurement": "potency as experimental vaginal contraceptive, fold more potent than nonoxynol-9", "setting": "[5]", "result": "up to 100 fold"}, {"measurement": "acrosin activity (in words)", "setting": "acrosin", "result": "inhibitory action on acrosin activity"}, {"measurement": "optimal concentration required to inhibit both acrosome reaction and sperm motility", "setting": "human spermatozoa", "result": 100, "unit": "µg/mL"}]}, {"compound": "CC(=O)Nc1ccc(O)cc1", "note": "[Acetaminophen, acetaminophen]", "values": [{"measurement": "IC100", "setting": "HIV [2]; [8]", "result": 150, "unit": "µg/mL"}, {"measurement": "IC100", "setting": "HIV [2]; [9]", "result": "150 µg/mL and 1000 µM"}, {"measurement": "IC50", "setting": "HIV [2]; read-out: inhibitory concentration (IC50), 50% inhibition of de novo HIV infection", "result": 21, "unit": "µg/mL"}, {"measurement": "anti-HIV activity (in words)", "setting": "HIV [2]", "result": "antivirally active"}, {"measurement": "selectivity ratio", "setting": "in vitro", "result": "≤ 75"}, {"measurement": "toxicity at tested concentrations (in words)", "setting": "MT-4 T lymphocytes [3]", "result": "has not shown any toxicity at all tested concentrations"}, {"measurement": "toxic dose-effect by XTT formazan OD (in words)", "setting": "MT-4 T lymphocytes [3]; up to highest tested dose containing 0.5% of ethanol", "result": "no observable toxic dose-effect"}, {"measurement": "anti-inflammatory activity (in words)", "setting": "[6]; human, in vivo", "result": "no anti-inflammatory activity"}, {"measurement": "toxicity / hepatotoxicity (in words)", "setting": "[6]; overdose or consumption with alcohol", "result": "can cause hepatotoxicity"}]}]}
